{"source": "PubChem BioAssay AID1996"}
{"details": "buffer; pH 7.4; 200.0 µM", "units": {"solubility kinetic": "µg/mL"}}
{"smiles": "COC(=O)c1c(-c2c(Cl)cccc2Cl)noc1NC(=O)N(C)C", "solubility kinetic": 49.3}
{"smiles": "CCS(=O)(=O)c1ccc(C(=O)NC)c(Cl)c1Cl", "solubility kinetic": "> 44.4"}
{"smiles": "CCOC(=O)c1c(C)[nH]c(C)c1C(=O)COC(=O)c1ccc(O)cc1", "solubility kinetic": "> 51.8"}
{"smiles": "Cc1cc(=O)n(Cc2ccccc2)c2ccccc12", "solubility kinetic": "> 37.4"}
{"smiles": "Cc1cc(=O)[nH]c(SCC(=O)NC2CCCCCC2)n1", "solubility kinetic": "> 44.3"}
{"smiles": "CNc1nc(-c2c(C)n(C)c3ccc(OC)cc23)cs1", "solubility kinetic": 23.9}
{"smiles": "CC(NC(N)=O)C(=O)NCC(=O)OCc1ccccc1", "note": "(stereo unspecified)", "solubility kinetic": "> 41.9"}
{"smiles": "CCNC1CCS(=O)(=O)C1", "note": "(stereo unspecified)", "solubility kinetic": "> 24.5"}
{"smiles": "CCn1cc(CCCC(=O)NCc2ccc(OC)cc2)c2ccccc21", "solubility kinetic": 10.5}
{"smiles": "COc1ccc(C(=O)Nc2cc(C(=O)O)cc(C(=O)O)c2)cc1Cl", "solubility kinetic": "> 52.5"}
{"smiles": "COc1ccc(-c2cc(C(=O)Nc3ccccc3F)on2)cc1", "solubility kinetic": "< 0.3"}
{"smiles": "Oc1c(Cl)cc(Cl)cc1CNc1nccs1", "solubility kinetic": 2.9}
{"smiles": "CC(C)N(C(=O)Cn1c(=O)oc2ccccc21)c1ccccc1", "solubility kinetic": 0.7}
{"smiles": "CSc1ncc(C(=O)Nc2ccccc2Cl)c(C)n1", "solubility kinetic": 39.6}
{"smiles": "Cc1nc(N)nc(Cl)c1Cc1ccc(Cl)cc1", "solubility kinetic": 3.6}
{"smiles": "COc1cc2ccccc2cc1C(=O)Nc1ccccc1Cl", "solubility kinetic": "< 0.7"}
{"smiles": "Cc1cc(C)c(C(=O)CSc2nnc(C)c(=O)[nH]2)cc1C", "solubility kinetic": "> 45.5"}
{"smiles": "Cc1ccc(C(C)NC(=O)C2CCCC2)cc1C", "note": "(stereo unspecified)", "solubility kinetic": 31.4}
{"smiles": "COc1ccc(Cl)cc1NC(=O)CN(C)Cc1cccs1", "solubility kinetic": 3}
{"smiles": "CC(C)Cn1c(-c2cccnc2)nc2c1c(=O)[nH]c(=O)n2CC(C)C", "solubility kinetic": 45.7}
{"smiles": "Cc1ccc(C(=O)/C=C/c2ccccc2[N+](=O)[O-])cc1", "solubility kinetic": 6.8}
{"smiles": "CCCCc1nc2sc3c(=O)[nH]cnc3c2c2c1CCCC2", "solubility kinetic": "< 0.2"}
{"smiles": "C/C(=N/OC(=O)c1ccc(Br)cc1)c1ccc(C)cc1", "solubility kinetic": "< 0.7"}
{"smiles": "O=C(O)COCC(=O)Nc1ccc2c(c1)oc1ccccc12", "solubility kinetic": "> 44.9"}
{"smiles": "COc1ccc(CC(C)CC(=O)Nc2ccc(OC)cc2)cc1", "note": "(stereo unspecified)", "solubility kinetic": 4.6}
{"smiles": "CC(NC(=O)c1cc(=O)[nH]c2ccccc12)c1ccc(F)cc1F", "note": "(stereo unspecified)", "solubility kinetic": 2.8}
{"smiles": "Cc1cc(C)nc(NC(=S)Nc2ccccc2)n1", "solubility kinetic": 0.3}
{"smiles": "CCOC(=O)CNC(=O)N1c2ccccc2Sc2ccccc21", "solubility kinetic": "> 49.3"}
{"smiles": "Cc1ccc(N2C(=O)C(Cl)=C(N3CCOCC3)C2=O)c(C)c1", "solubility kinetic": 36.3}
{"smiles": "CCOC(=O)Cc1csc(NC(=O)COc2cccc(C)c2)n1", "solubility kinetic": 8.4}
{"smiles": "CC1CCCN(CC(O)COc2ccc(-c3ccccc3)cc2)C1", "note": "(stereo unspecified)", "solubility kinetic": 44.4}
{"smiles": "COC(=O)c1ccc(NC(=O)C2CC(=O)OC2c2ccccc2)cc1", "note": "(stereo unspecified)", "solubility kinetic": 36}
{"smiles": "O=C1NC(=O)N(c2ccccc2)C1=O", "solubility kinetic": "> 28.5"}
{"smiles": "O=C(Cn1cc([N+](=O)[O-])ccc1=O)Nc1ccc2c(c1)OCO2", "solubility kinetic": 15.8}
{"smiles": "O=C(NC12CC3CC(CC(C3)C1)C2)c1cc(F)c(F)cc1Cl", "solubility kinetic": 0.7}
{"smiles": "CCOC(=O)C1=C(CC)Nc2ccccc2N/C1=N\\S(=O)(=O)c1cccc(C(C)=O)c1", "solubility kinetic": "> 66.2"}
{"smiles": "COc1cccc(NC(=O)COC(=O)Cc2ccc(Cl)cc2)c1", "solubility kinetic": "> 50.1"}
{"smiles": "COc1ccc(NC(=O)C(=O)Nc2cccc3cccnc23)cc1OC", "solubility kinetic": "< 0.3"}
{"smiles": "CC(CCc1ccccc1)NC(C)C(O)c1ccc(O)cc1.Cl", "note": "(stereo unspecified)", "solubility kinetic": "> 50.4"}
{"smiles": "CCOc1ccc2c(c1)[nH]c(=S)n2C", "solubility kinetic": "> 31.2"}
{"smiles": "Oc1ccc2ccccc2c1CN1CCCC1", "solubility kinetic": 32}
{"smiles": "CS(=O)(=O)N1CCCC(C(=O)c2cccc(Cl)c2)C1", "note": "(stereo unspecified)", "solubility kinetic": "> 45.3"}
{"smiles": "O=C1OCc2ccc(NS(=O)(=O)c3ccc(C(F)(F)F)cc3)cc21", "solubility kinetic": "> 53.6"}
{"smiles": "O=C(Cn1cc([N+](=O)[O-])cn1)N1CCN(c2ccccc2)CC1", "solubility kinetic": "> 47.3"}
{"smiles": "O=C1NC(=O)/C(=C/c2ccc(-c3cc(C(=O)O)ccc3Cl)o2)S1", "solubility kinetic": "> 52.5"}
{"smiles": "COc1ccc(N2C(=O)CSC2c2ccc(F)c(F)c2)cc1", "note": "(stereo unspecified)", "solubility kinetic": "> 48.2"}
{"smiles": "COc1ccccc1CC(=O)N1CCN(c2ccc(F)cc2)CC1", "solubility kinetic": "> 49.3"}
{"smiles": "Cc1cc(C)n2nc(SCc3ccc(C#N)cc3)nc2n1", "solubility kinetic": "> 44.3"}
{"smiles": "N#Cc1ccc(-c2cn3c(n2)SCC3)cc1", "solubility kinetic": "> 34.1"}
{"smiles": "Cn1c(-c2ccc(Cl)nc2)nc2ccccc21", "solubility kinetic": "> 36.6"}
{"smiles": "Cc1ccc(CC2CC(=O)N(c3ccc(C)cc3)C2=O)cc1", "note": "(stereo unspecified)", "solubility kinetic": 7.8}
{"smiles": "O=C(NCCN1CCOCC1)Nc1ccc(F)cc1", "solubility kinetic": "> 40.1"}
{"smiles": "Clc1ccc(OCc2noc(-c3ccsc3)n2)c(Cl)c1", "solubility kinetic": "< 0.4"}
{"smiles": "Nc1cccc2c(=O)c3ccccc3[nH]c12", "solubility kinetic": 5.6}
{"smiles": "COc1ccc(S(=O)(=O)n2cnc3ccccc32)cc1OC", "solubility kinetic": "> 47.8"}
{"smiles": "CCc1cc(C(=O)Nc2ccccc2N2CCOCC2)sc1C", "solubility kinetic": 2.2}
{"smiles": "COc1ccc(/C=C/C2=CCN(C)CC2)cc1.Cl", "solubility kinetic": "> 39.9"}
{"smiles": "CC(=O)Nc1cccc(CCc2nc3ccccc3[nH]2)c1", "solubility kinetic": "> 41.9"}
{"smiles": "O=C(Nc1ncc2c(n1)-c1ccccc1OC2)c1ccc(F)cc1", "solubility kinetic": 6.1}
{"smiles": "Cc1ccsc1CN(C)C(=O)c1ccc(Oc2ccccc2)cc1", "solubility kinetic": 3.3}
{"smiles": "COc1ccc(NC(=S)Nc2cccc(C)n2)cc1", "solubility kinetic": "< 0.2"}
{"smiles": "N/C(CCS(=O)(=O)c1ccc(Cl)cc1)=N\\OC(=O)c1ccccc1Cl", "solubility kinetic": 41.6}
{"smiles": "COc1cc(NC(=O)c2onc(C)c2Cl)cc(OC)c1OC", "solubility kinetic": 28.7}
{"smiles": "O=C(Nc1nnc(C2=COCCO2)o1)c1cccc(F)c1", "solubility kinetic": "> 43.7"}
{"smiles": "O=C(NC1CCN(C(=O)NCc2ccccc2)CC1)c1cccc(F)c1", "solubility kinetic": 3.4}
{"smiles": "COc1ccc(N2CCN(C(=O)c3cc(C)on3)CC2)cc1", "solubility kinetic": "> 45.2"}
{"smiles": "COC(=O)c1ccc(NC(=O)c2cc[n+]([O-])cc2)cc1", "solubility kinetic": "> 40.8"}
{"smiles": "Cc1ccc(-c2nc(C(=O)O)cs2)cc1", "solubility kinetic": 29.5}
{"smiles": "Cc1ccc(C(=O)NCC(=O)O)o1", "solubility kinetic": 25.1}
{"smiles": "Cc1ccc(OCC(=O)N2CCN(C(=O)c3cccc(F)c3)CC2)cc1", "solubility kinetic": "> 53.5"}
{"smiles": "CCC(CC)C(=O)c1c[nH]c(C(=O)NCc2cccnc2)c1", "solubility kinetic": 42.2}
{"smiles": "Cc1cc(NC(=O)c2cccc(Br)c2)no1", "solubility kinetic": 4.2}
{"smiles": "COc1ccc(OC)c(NC(=O)COC(=O)CCCN=C2NS(=O)(=O)c3ccccc32)c1", "solubility kinetic": 6.4}
{"smiles": "O=C(NCCCc1ccccc1)c1ccc([N+](=O)[O-])cc1Cl", "solubility kinetic": 9.2}
{"smiles": "Cc1cc(C=C2C(=O)NC(=O)NC2=O)c(C)n1-c1ccncc1", "solubility kinetic": "> 46.5"}
{"smiles": "O=C(COC(=O)/C=C/c1ccc(Cl)cc1)NC1CC1", "solubility kinetic": 7.1}
{"smiles": "CCN1CCN(C(=O)/C=C/c2ccc(C)cc2)CC1", "solubility kinetic": "> 38.8"}
{"smiles": "O=C(Nc1cccnc1)c1ccc([N+](=O)[O-])o1", "solubility kinetic": "> 35"}
{"smiles": "C#CC(CCN1CCCCC1)(OC)c1ccccc1.Cl", "note": "(stereo unspecified)", "solubility kinetic": 27.2}
{"smiles": "CN1CCN(C2CC(=O)N(CCc3ccccc3)C2=O)CC1", "note": "(stereo unspecified)", "solubility kinetic": "> 45.2"}
{"smiles": "CC(C)(C)c1ccc(-c2noc(-c3ccc4c(c3)CCO4)n2)cc1", "solubility kinetic": 0.8}
{"smiles": "O=C(CN1C(=O)c2ccccc2C1=O)NC1CCC(O)CC1", "note": "(stereo unspecified)", "solubility kinetic": "> 45.3"}
{"smiles": "O=C(NCCOc1ccccc1)c1ccccc1Cl", "solubility kinetic": "> 41.4"}
{"smiles": "CC(C)Cc1ccc(C(C)C(N)=Nc2ccc(O)cc2)cc1.Cl", "note": "(stereo unspecified)", "solubility kinetic": "> 49.9"}
{"smiles": "Clc1cccc(N2CCN(c3ncnc4nc[nH]c34)CC2)c1", "solubility kinetic": 0.8}
{"smiles": "O=C(OCC(=O)N1CCOCC1)c1ccccc1OCc1ccccc1Cl", "solubility kinetic": 54.9}
{"smiles": "Cc1cccc(C)c1NC(=O)CN1C(=O)C(C)Oc2ccccc21", "note": "(stereo unspecified)", "solubility kinetic": 11.6}
{"smiles": "N/C(=N\\O)c1ccc(Cl)cc1Cl", "solubility kinetic": 30}
{"smiles": "CCc1ccccc1NC(=O)CN(C)C(=O)COC(=O)c1ccco1", "solubility kinetic": "> 51.7"}
{"smiles": "O=C(CCc1ccccc1O)NC1CCCc2ccccc21", "note": "(stereo unspecified)", "solubility kinetic": "> 44.3"}
{"smiles": "C=CCNC(=O)CSCc1ccc(Br)cc1", "solubility kinetic": "> 45"}
{"smiles": "COc1cc(C(=O)OCc2cc(=O)n3ccsc3n2)ccc1OC(C)C", "solubility kinetic": 5.3}
{"smiles": "COC(=O)[C@H](CC(C)C)NC(=O)N1CCCCC1C", "note": "(stereo partly specified)", "solubility kinetic": "> 40.6"}
{"smiles": "CCOc1ccc2nc(NC(=O)CN3CCOCC3)sc2c1", "solubility kinetic": "> 48.2"}
{"smiles": "COCCNC(=O)C(OC(=O)c1ccco1)c1ccccc1F", "note": "(stereo unspecified)", "solubility kinetic": "> 48.2"}
{"smiles": "COc1ccc(/C=C/C(=O)NC(=S)Nc2ccccn2)cc1", "solubility kinetic": 1.8}
{"smiles": "Cc1ccc(C(=O)N2c3ccccc3OCC2C)cc1", "note": "(stereo unspecified)", "solubility kinetic": 37}
{"smiles": "O=C(Cc1ccccc1)NCC(=O)Nc1cccc(Cl)c1", "solubility kinetic": 10}
{"smiles": "COc1ccc(-n2c3c(cc(C#N)c2=O)C(=O)CCC3)cc1", "solubility kinetic": "> 44.1"}
{"smiles": "Cc1ccnc(NC(=O)c2ccc3[nH]c(=O)c(=O)[nH]c3c2)c1", "solubility kinetic": 2.2}
{"smiles": "Cc1c(C(=O)Oc2ccc(Cl)cc2)n(C)oc1=O", "solubility kinetic": 37}
{"smiles": "O=C(c1c(F)cccc1Cl)N1CCN(c2ccccn2)CC1", "solubility kinetic": "> 48"}
{"smiles": "COc1ccc(S(=O)(=O)NCCC(=O)OCC(=O)NC2CC2)cc1", "solubility kinetic": "> 53.5"}
{"smiles": "CCc1nc2cccnc2n1-c1ccc(CC(=O)NC(C)CC)cc1", "note": "(stereo unspecified)", "solubility kinetic": "> 50.5"}
{"smiles": "O=C(OCC(=O)N1CCC(Cc2ccccc2)CC1)c1cncc(Br)c1", "solubility kinetic": 9.9}
{"smiles": "C=CCNC(=S)/N=c1/ccccn1Cc1ccccc1", "solubility kinetic": 39.6}
{"smiles": "Cc1cc(C)cc(CN2C(=O)NC3(CCCCCC3)C2=O)c1", "solubility kinetic": 18.1}
{"smiles": "Cc1nc2ccc([N+](=O)[O-])cc2c(=O)n1Cc1cccc(F)c1", "solubility kinetic": 9.1}
{"smiles": "O=C1CCCN1CCCNS(=O)(=O)c1ccc(F)cc1F", "solubility kinetic": "> 47.8"}
{"smiles": "COc1ccc2[nH]c(=O)c(CN(C(=O)c3cccnc3)c3cccc(C)c3)cc2c1", "solubility kinetic": 3.9}
{"smiles": "CCOC(=O)Cn1nc(C)c([N+](=O)[O-])c1C", "solubility kinetic": "> 34.1"}
{"smiles": "COc1ccc(NC(=O)CNC(=O)C2CCCCC2)cc1OC", "solubility kinetic": "> 48.1"}
{"smiles": "O=C(C1CC1)N1CCN(Cc2ccccc2)CC1", "solubility kinetic": 33.5}
{"smiles": "N/C(=N\\O)c1cn(Cc2ccccc2Cl)c2ccccc12", "solubility kinetic": 39.4}
{"smiles": "CNC(=O)c1cc2cc(Br)ccc2s1", "solubility kinetic": 8.1}
{"smiles": "Cc1cccc(C)c1NC(=O)CNCC(=O)N(C)C", "solubility kinetic": "> 39.5"}
{"smiles": "CC(C)(C)c1ccc(C(=O)Nc2ccc(NC(=O)C(=O)O)cc2)o1", "solubility kinetic": 44.5}
{"smiles": "CCOc1ccc(NC(=S)NC(=O)/C=C/c2ccco2)cc1", "solubility kinetic": "< 0.3"}
{"smiles": "COc1ccc(CN(C)C(=S)Nc2ccc(Cl)cc2)cc1", "solubility kinetic": 13.5}
{"smiles": "C#CC(C)(C)NC(=S)NC1CC2C=CC1C2", "note": "(stereo unspecified)", "solubility kinetic": 28}
{"smiles": "O=C1c2ccccc2CN1C(CO)Cc1ccccc1", "note": "(stereo unspecified)", "solubility kinetic": "> 40.1"}
